Measurements reported in ChEMBL document CHEMBL3244089, “Structure-activity studies on hallucinogenic amphetamines using molecular connectivity” (1977).

Assays:
Homo sapiens [1] = species: Homo sapiens; assay: Hallucinogenic activity in human; type: functional
Homo sapiens [2] = species: Homo sapiens; assay: Hallucinogenic activity in human relative to mescaline; type: functional

| SMILES | log(activity) (Homo sapiens [1]) | Ratio (Homo sapiens [2]) |
| --- | --- | --- |
| COc1ccc(CC(C)N)cc1 (stereo not given) [PARA-METHOXYAMPHETAMINE] | 0.59 | – |
| COc1cc(CC(C)N)cc2c1OCO2 (stereo not given) | 0.43 | – |
| COc1ccc(CC(C)N)c(OC)c1OC (stereo not given) | – | 2 |
| COc1cc(OC)c(OC)cc1CCN | – | 1 |
| COc1ccc(CC(C)N)cc1OC (stereo not given) | – | 2 |
| CCCCc1cc(OC)c(CC(C)N)cc1OC (stereo not given) | 1.63 | – |
| COc1ccc(CC(C)N)c2c1OCO2 (stereo not given) | 0.48 | – |
| CN(C)CCc1c[nH]c2cccc(O)c12 [PSILOCIN] | – | 32 |
| COc1ccc(OC)c(OC)c1CC(C)N (stereo not given) | 1.14 | – |
| COc1ccc(CCN)cc1OC | – | 0.2 |
| COc1cc2c(cc1CC(C)N)OCO2 (stereo not given) | 1.08 | – |
| COc1cc(CCN)c2c(c1)OCO2 | – | 1 |
| COc1c(CC(C)N)ccc2c1OCO2 (stereo not given) | 1 | 1 |
| COc1cc(CC(C)N)cc(OC)c1OC (stereo not given) | 0.37 | – |
| COc1ccc(CC(C)N)c(OC)c1 (stereo not given) | 0.67 | – |
| COc1c(CCN)ccc2c1OCO2 | – | 5 |
| COc1ccc(CCN)cc1 | – | 1 |

| SMILES | log(activity) (Homo sapiens [1]) | Ratio (Homo sapiens [2]) |
| --- | --- | --- |
| CCCCCc1cc(OC)c(CC(C)N)cc1OC (stereo not given) | 1.09 | – |
| CN(C)CCc1c[nH]c2cc(O)ccc12 | – | 25 |
| CC(N)Cc1ccc2c(c1)OCO2 (stereo not given) [TENAMFETAMINE] | 0.41 | – |
| COc1cc(CC(C)N)c(OC)cc1Br (stereo not given) [BROLAMFETAMINE] | 2.71 | – |
| COc1cc(CC(C)N)c(OC)c(OC)c1OC (stereo not given) | 0.86 | – |
| COc1cc(CC(C)N)c(OC)c2c1OCO2 (stereo not given) | 1.13 | – |
| COc1cc(OC)c(OC)cc1CC(C)N (stereo not given) | 1.26 | – |
| COc1cc(CC(C)N)c(OC)cc1C (stereo not given) [DOM] | 1.89 | – |
| CCOc1cc(OC)c(CC(C)N)cc1OC (stereo not given) | 1.22 | – |
| COc1cc(OC)c(CC(C)N)c(OC)c1 (stereo not given) | 1.03 | – |
| COc1ccc(OC)c(CC(C)N)c1 (stereo not given) | 0.87 | – |
| CCCc1cc(OC)c(CC(C)N)cc1OC (stereo not given) | 1.94 | – |
| COc1cc(CC(C)N)c(OC)c(OC)c1 (stereo not given) | 0.63 | – |
| CCOc1cc2c(cc1CC(C)N)OCO2 (stereo not given) | – | 7 |
| COc1c(CC(C)N)cc2c(c1OC)OCO2 (stereo not given) | 0.75 | – |
| CCOc1cc(CC(C)N)c(OC)cc1OC (stereo not given) | – | 7 |
| CCc1cc(OC)c(CC(C)N)cc1OC (stereo not given) | 2.01 | – |
